The supplement of paper PMC10307832

Experiments:
Test in all cases: relative viability (nuclei count vs DMSO), 5 days (fraction); higher = more cells survive
MIM1 = compound: CC1=CSC(=NC2CCCCC2)N1/N=C/C3=C(C(=C(C=C3)O)O)O [MIM1]
Procedure, shortened: (§1)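 Viability here means nuclei in treated wells divided by nuclei in vehicle wells, reported as the median across plates. Only plates with control CV below 25% and at least one doubling passed. Lung cancer cell lines in 1536-well plates were exposed to five √10-spaced library-drug doses for 5 days and counted from 4× Hoechst images in MetaXpress.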

Saracatinib = compound: CN1CCN(CCOc2cc(OC3CCOCC3)c3c(Nc4c(Cl)ccc5c4OCO5)ncnc3c2)CC1 [Saracatinib]
Procedure, shortened: as §1

Nilotinib = compound: Cc1cn(-c2cc(NC(=O)c3ccc(C)c(Nc4nccc(-c5cccnc5)n4)c3)cc(C(F)(F)F)c2)cn1 [Nilotinib]
Procedure, shortened: as §1

Lenalidomide = compound: Nc1cccc2c1CN(C1CCC(=O)NC1=O)C2=O [Lenalidomide]
Procedure, shortened: as §1

Luminespib = compound: CCNC(=O)c1noc(-c2cc(C(C)C)c(O)cc2O)c1-c1ccc(CN2CCOCC2)cc1 [Luminespib]
Procedure, shortened: as §1

| Cell Line | relative viability (MIM1; 0.2 µM) | relative viability (MIM1; 0.6325 µM) | relative viability (MIM1; 2 µM) | relative viability (MIM1; 6.325 µM) | relative viability (MIM1; 20 µM) | relative viability (Saracatinib; 0.02 µM) | relative viability (Saracatinib; 0.2 µM) | relative viability (Saracatinib; 0.6325 µM) | relative viability (Saracatinib; 2 µM) | relative viability (Nilotinib; 0.001 µM) | relative viability (Nilotinib; 0.003162 µM) | relative viability (Nilotinib; 0.01 µM) | relative viability (Nilotinib; 0.03162 µM) | relative viability (Nilotinib; 0.1 µM) | relative viability (Lenalidomide; 0.253 µM) | relative viability (Lenalidomide; 0.8 µM) | relative viability (Lenalidomide; 2.53 µM) | relative viability (Lenalidomide; 8 µM) | relative viability (Luminespib; 0.002 µM) | relative viability (Luminespib; 0.006325 µM) | relative viability (Luminespib; 0.01 µM, anchor plate) | relative viability (Luminespib; 0.02 µM) | relative viability (Luminespib; 0.06325 µM) | relative viability (Luminespib; 0.2 µM) |
| --- | --- | --- | --- | --- | --- | --- | --- | --- | --- | --- | --- | --- | --- | --- | --- | --- | --- | --- | --- | --- | --- | --- | --- | --- |
| NCI-H838 | 0.967 | 0.959 | 0.786 | 0.78 | 0.372 | 0.96 | 0.897 | 0.898 | 0.772 | 0.924 | 1.02 | 1.06 | 0.863 | 0.992 | 0.969 | 0.879 | 1.07 | 0.823 | 0.983 | 0.92 | 0.298 | 0.554 | 0.177 | 0.186 |
| NCI-H1299 | 0.983 | 0.992 | 0.994 | 1.01 | 0.776 | 1.02 | 0.948 | 1.05 | 1 | 0.939 | 1.08 | 1.15 | 1.02 | 0.966 | 1.02 | 0.97 | 1.03 | 1.05 | 1.03 | 0.95 |  | 1.04 | 0.942 | 0.217 |
| NCI-H1355 | 1 | 0.824 | 1.07 | 0.816 | 0.595 | 1.02 | 0.972 | 1.03 | 0.975 | 0.96 | 1.21 | 1.13 | 1.01 | 0.428 | 1 | 0.746 | 1.02 | 0.721 | 0.953 | 0.956 | 0.746 | 0.52 | 0.67 | 0.166 |
| NCI-H1395 | 0.961 | 0.791 | 0.873 | 0.675 | 0.345 | 0.994 | 0.828 | 0.91 | 0.799 | 0.957 | 0.7 | 0.874 | 0.803 | 0.542 | 0.997 |  | 1.02 | 0.846 | 1.07 | 0.861 | 0.764 | 0.622 | 0.362 | 0.323 |
| NCI-H1437 | 0.956 | 0.927 | 1 | 0.714 | 0.273 | 1.02 | 1.02 | 1.04 | 0.971 | 0.955 | 0.988 | 1.12 | 0.868 | 0.958 | 1.02 | 0.939 | 1.05 | 1.01 | 0.977 | 0.943 | 1.12 | 1.02 | 0.743 | 0.26 |
| NCI-H1563 | 1.09 | 1.02 | 0.993 | 0.903 | 0.542 | 1.04 | 0.894 | 0.804 | 0.728 | 0.956 | 1.03 | 0.971 | 0.869 | 1.02 | 0.932 | 1.01 | 1.11 | 0.846 | 0.984 | 0.985 | 0.508 | 0.794 | 0.503 | 0.49 |
| NCI-H1623 | 0.922 | 0.965 | 1.03 | 0.945 | 0.46 | 0.993 | 0.852 | 1.11 | 0.67 | 1.1 | 0.885 | 1.08 | 0.889 | 0.927 | 1.08 | 0.932 | 1.05 | 0.869 | 1.02 | 0.959 | 0.529 | 0.712 | 0.716 | 0.302 |
| NCI-H1648 | 1.01 | 0.929 | 0.989 | 0.635 | 0.283 | 0.895 | 0.553 | 1.52 | 0.727 | 0.79 | 0.738 | 0.829 | 0.605 | 0.757 | 0.93 | 0.732 | 1.29 | 0.705 | 0.671 | 0.811 |  | 0.837 | 0.742 | 0.413 |
| NCI-H1650 | 0.908 | 0.949 | 0.654 | 0.189 | 0.148 | 0.814 | 0.689 | 0.737 | 0.581 | 0.912 | 1.22 | 1.12 | 0.931 | 0.598 | 0.828 | 0.857 | 1.23 | 1.12 | 1.02 | 0.823 | 0.199 | 0.228 | 0.122 | 0.138 |
| NCI-H1651 | 0.983 | 0.959 | 0.932 | 0.896 | 0.799 | 1 | 0.887 | 1.07 | 0.937 | 0.94 | 1.09 | 1.14 | 0.905 | 0.676 | 0.972 | 0.984 | 1.14 | 0.904 | 0.979 | 0.934 | 0.86 | 0.818 | 0.738 | 0.351 |
| NCI-H1666 | 1.03 | 0.966 | 0.945 | 0.802 | 0.564 | 1.02 | 0.942 | 1.27 | 1.17 | 0.934 | 0.989 | 1.06 | 0.918 | 1.01 | 1.02 | 0.745 | 1.1 | 1.05 | 1.05 | 0.937 | 1.03 | 1.01 | 0.956 | 0.838 |
| NCI-H1703 | 0.897 | 1 | 0.878 | 0.205 | 0.133 | 0.93 | 0.772 | 0.448 | 0.326 | 0.795 | 0.684 | 0.538 | 0.286 |  | 0.991 | 0.923 | 1.01 | 0.904 | 1.12 | 0.899 |  | 0.708 | 0.134 | 0.14 |
| NCI-H1734 | 1.02 | 0.871 | 0.953 | 0.476 | 0.182 | 1.06 |  | 0.86 | 0.783 | 0.918 | 1.14 | 1.21 | 0.687 | 0.402 | 1.01 | 1.07 | 1.09 | 0.798 | 0.999 | 0.902 | 0.198 | 0.634 | 0.159 | 0.15 |
| NCI-H1755 | 1 | 0.956 | 1.01 | 0.816 | 0.308 | 0.953 | 0.859 | 0.957 | 0.88 | 0.974 | 1.08 | 1.03 | 0.832 | 0.828 | 0.976 | 0.986 | 1.07 | 0.879 | 0.996 | 0.987 | 0.355 | 0.979 | 0.818 | 0.225 |
